Assay results published in publication doi:10.1101/2020.03.04.976639v2 (biorxiv, 2020).

Columns and labels:
[1] = biological target: T1, PaThiL (P. aeruginosa thiamine monophosphate kinase, ThiL) (Pseudomonas aeruginosa, UniProt Q9HWX7); assay: luminescent kinase assay; format: biochemical; conditions: random Bi-Bi fit; TMP 0.78-50 µM; 50 mM Tris-HCl pH 8.0, 5 mM MgCl2, 350 mM KCl
T1 sequence (Q9HWX7 1-322): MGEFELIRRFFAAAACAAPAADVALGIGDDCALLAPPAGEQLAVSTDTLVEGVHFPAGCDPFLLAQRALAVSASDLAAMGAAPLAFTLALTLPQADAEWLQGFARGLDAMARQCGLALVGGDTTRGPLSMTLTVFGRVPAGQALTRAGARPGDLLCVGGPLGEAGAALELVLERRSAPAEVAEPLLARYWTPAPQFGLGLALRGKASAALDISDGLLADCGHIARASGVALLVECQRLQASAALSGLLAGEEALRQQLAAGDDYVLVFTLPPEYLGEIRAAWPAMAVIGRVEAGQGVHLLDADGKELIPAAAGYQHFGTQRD

[2] = biological target: T1, PaThiL (P. aeruginosa thiamine monophosphate kinase, ThiL); assay: luminescent kinase assay; format: biochemical

Row | Compound | Km [1] | Ki [2]
1 | Nc1ncnc2c1ncn2[C@@H]1O[C@H](COP(=O)(O)OP(=O)(O)OP(=O)(O)O)[C@@H](O)[C@H]1O [ATP] | 111 ± 8 µM | 
2 | O=C(O)Cc1c[nH]c2ccc(O)cc12 [5-hydroxyindolacetic acid] |  | 114 ± 27 µM
